From ChEMBL document CHEMBL3045592, “Studies of O,O-dimethyl α-(2,4-dichlorophenoxyacetoxy)ethylphosphonate (HW02) as a new herbicide. 1. Synthesis and herbicidal activity of HW02 and analogues as novel inhibitors of pyruvate dehydrogenase complex” (J Agric Food Chem, 2011)

How the values were obtained:
Chenopodium album [1] = assay: Pre-emergence herbicidal activity against Chenopodium album assessed as growth inhibition at 150 ai g/ha after 20 days by green house test; format: functional
Cucumis sativus [2] = assay: Herbicidal activity against Cucumis sativus Jin 4 (cucumber) assessed as inhibition of root growth after 3 days; format: functional, organism-based; details: Jin 4, 72 h
Digitaria sanguinalis [3] = assay: Pre-emergence herbicidal activity against Digitaria sanguinalis (hairy crabgrass) assessed as growth inhibition at 150 ai g/ha after 20 days by green house test; format: functional
Abutilon theophrasti [4] = assay: Pre-emergence herbicidal activity against Abutilon theophrasti (velvetleaf) assessed as growth inhibition at 75 ai g/ha after 20 days by green house test; format: functional
Setaria viridis [5] = assay: Post-emergence herbicidal activity against Setaria viridis (green foxtail) assessed as growth inhibition at 150 ai g/ha after 20 days by green house test; format: functional
Abutilon theophrasti [6] = assay: Post-emergence herbicidal activity against Abutilon theophrasti (velvetleaf) assessed as growth inhibition at 450 ai g/ha after 20 days by green house test; format: functional
Digitaria sanguinalis [7] = assay: Post-emergence herbicidal activity against Digitaria sanguinalis (hairy crabgrass) assessed as growth inhibition at 150 ai g/ha after 20 days by green house test; format: functional
Digitaria sanguinalis [8] = assay: Pre-emergence herbicidal activity against Digitaria sanguinalis (hairy crabgrass) assessed as growth inhibition at 450 ai g/ha after 20 days by green house test; format: functional
Brassica juncea = assay: Post-emergence herbicidal activity against Brassica juncea assessed as growth inhibition at 450 ai g/ha after 20 days by green house test; format: functional
Abutilon theophrasti [9] = assay: Pre-emergence herbicidal activity against Abutilon theophrasti (velvetleaf) assessed as growth inhibition at 450 ai g/ha after 20 days by green house test; format: functional
Amaranthus spinosus [10] = assay: Post-emergence herbicidal activity against Amaranthus spinosus assessed as growth inhibition at 75 ai g/ha after 20 days by green house test; format: functional
Amaranthus spinosus [11] = assay: Pre-emergence herbicidal activity against Amaranthus spinosus assessed as growth inhibition at 75 ai g/ha after 20 days by green house test; format: functional
Amaranthus spinosus [12] = assay: Pre-emergence herbicidal activity against Amaranthus spinosus assessed as growth inhibition at 150 ai g/ha after 20 days by green house test; format: functional
Setaria viridis [13] = assay: Post-emergence herbicidal activity against Setaria viridis (green foxtail) assessed as growth inhibition at 450 ai g/ha after 20 days by green house test; format: functional
Abutilon theophrasti [14] = assay: Post-emergence herbicidal activity against Abutilon theophrasti (velvetleaf) assessed as growth inhibition at 150 ai g/ha after 20 days by green house test; format: functional
Echinochloa crus-galli [15] = assay: Post-emergence herbicidal activity against Echinochloa crus-galli (barnyard grass) assessed as growth inhibition at 450 ai g/ha after 20 days by green house test; format: functional
Chenopodium album [16] = assay: Pre-emergence herbicidal activity against Chenopodium album assessed as growth inhibition at 75 ai g/ha after 20 days by green house test; format: functional
Pisum sativum = assay: Post-emergence herbicidal activity against Pisum sativum Zhongwan-2 (pea) assessed as growth inhibition at 450 ai g/ha after 20 days by green house test; details: Lathyrus oleraceus
Abutilon theophrasti [17] = assay: Post-emergence herbicidal activity against Abutilon theophrasti (velvetleaf) assessed as growth inhibition at 75 ai g/ha after 20 days by green house test; format: functional
Digitaria sanguinalis [18] = assay: Pre-emergence herbicidal activity against Digitaria sanguinalis (hairy crabgrass) assessed as growth inhibition at 75 ai g/ha after 20 days by green house test; format: functional
Amaranthus retroflexus [19] = assay: Post-emergence herbicidal activity against Amaranthus retroflexus assessed as growth inhibition at 450 ai g/ha after 20 days by green house test; format: functional
Setaria viridis [20] = assay: Pre-emergence herbicidal activity against Setaria viridis (green foxtail) assessed as growth inhibition at 450 ai g/ha after 20 days by green house test; format: functional
Abutilon theophrasti [21] = assay: Pre-emergence herbicidal activity against Abutilon theophrasti (velvetleaf) assessed as growth inhibition at 150 ai g/ha after 20 days by green house test; format: functional
Amaranthus spinosus [22] = assay: Pre-emergence herbicidal activity against Amaranthus spinosus assessed as growth inhibition at 450 ai g/ha after 20 days by green house test; format: functional
Chenopodium album [23] = assay: Pre-emergence herbicidal activity against Chenopodium album assessed as growth inhibition at 450 ai g/ha after 20 days by green house test; format: functional
Amaranthus spinosus [24] = assay: Post-emergence herbicidal activity against Amaranthus spinosus assessed as growth inhibition at 450 ai g/ha after 20 days by green house test; format: functional
Amaranthus spinosus [25] = assay: Post-emergence herbicidal activity against Amaranthus spinosus assessed as growth inhibition at 150 ai g/ha after 20 days by green house test; format: functional
Setaria viridis [26] = assay: Post-emergence herbicidal activity against Setaria viridis (green foxtail) assessed as growth inhibition at 75 ai g/ha after 20 days by green house test; format: functional
Chenopodium album [27] = assay: Post-emergence herbicidal activity against Chenopodium album assessed as growth inhibition at 150 ai g/ha after 20 days by green house test; format: functional
Digitaria sanguinalis [28] = assay: Post-emergence herbicidal activity against Digitaria sanguinalis (hairy crabgrass) assessed as growth inhibition at 75 ai g/ha after 20 days by green house test; format: functional
[29] = Toxicity against Oryza sativa (rice) assessed as growth inhibition at 450 ai g/ha post-emergent application measured after 20 days by green house crop selectivity test; format: organism-based; details: in vivo, read-out: GI
Chenopodium album [30] = assay: Post-emergence herbicidal activity against Chenopodium album assessed as growth inhibition at 75 ai g/ha after 20 days by green house test; format: functional
Digitaria sanguinalis [31] = assay: Post-emergence herbicidal activity against Digitaria sanguinalis (hairy crabgrass) assessed as growth inhibition at 450 ai g/ha after 20 days by green house test; format: functional
Setaria viridis [32] = assay: Pre-emergence herbicidal activity against Setaria viridis (green foxtail) assessed as growth inhibition at 150 ai g/ha after 20 days by green house test; format: functional
Chenopodium album [33] = assay: Post-emergence herbicidal activity against Chenopodium album assessed as growth inhibition at 450 ai g/ha after 20 days by green house test; format: functional
Setaria viridis [34] = assay: Pre-emergence herbicidal activity against Setaria viridis (green foxtail) assessed as growth inhibition at 75 ai g/ha after 20 days by green house test; format: functional
[35] = target: Pyruvate dehydrogenase complex (Vigna radiata var. radiata); assay: Inhibition of PDHc in Vigna radiata var. radiata VC2778A shoot mitochondria assessed as decrease in rate of NADH formation using sodium pyruvate as substrate preincubated for 25 min before substrate addition measured after 1 min by spectrophotometric assay; format: protein-complex assay
Echinochloa crus-galli [36] = assay: Post-emergence herbicidal activity against Echinochloa crus-galli (barnyard grass) assessed as growth inhibition at 1500 ai g/ha after 20 days by green house test; format: functional
Medicago sativa [37] = assay: Post-emergence herbicidal activity against Medicago sativa (alfalfa) assessed as growth inhibition at 1500 ai g/ha after 20 days by green house test; format: functional
Echinochloa crus-galli [38] = assay: Pre-emergence herbicidal activity against Echinochloa crus-galli (barnyard grass) assessed as growth inhibition at 1500 ai g/ha after 20 days by green house test; format: functional
Amaranthus retroflexus [39] = assay: Pre-emergence herbicidal activity against Amaranthus retroflexus assessed as growth inhibition at 1500 ai g/ha after 20 days by green house test; format: functional
Medicago sativa [40] = assay: Pre-emergence herbicidal activity against Medicago sativa (alfalfa) assessed as growth inhibition at 1500 ai g/ha after 20 days by green house test; format: functional
Digitaria sanguinalis [41] = assay: Post-emergence herbicidal activity against Digitaria sanguinalis (hairy crabgrass) assessed as growth inhibition at 1500 ai g/ha after 20 days by green house test; format: functional
Digitaria sanguinalis [42] = assay: Pre-emergence herbicidal activity against Digitaria sanguinalis (hairy crabgrass) assessed as growth inhibition at 1500 ai g/ha after 20 days by green house test; format: functional
[43] = tested on: Brassica rapa subsp. oleifera; assay: Post-emergence herbicidal activity against Brassica rapa subsp. oleifera Si Yue Man assessed as growth inhibition at 1500 ai g/ha after 20 days by green house test; format: functional
Amaranthus retroflexus [44] = assay: Post-emergence herbicidal activity against Amaranthus retroflexus assessed as growth inhibition at 1500 ai g/ha after 20 days by green house test; format: functional
[45] = tested on: Brassica rapa subsp. oleifera; assay: Pre-emergence herbicidal activity against Brassica rapa subsp. oleifera Si Yue Man assessed as growth inhibition at 1500 ai g/ha after 20 days by green house test; format: functional
Cucumis sativus [46] = assay: Herbicidal activity against Cucumis sativus Jin 4 (cucumber) assessed as inhibition of stem growth after 3 days; format: functional, organism-based; details: Jin 4, 72 h

In the case of CCOP(=O)(OCC)C(C)OC(=O)COc1ccc(Cl)cc1Cl (stereo not given), the “growth inhibition (GI)” value (Chenopodium album [1]) is reported as 0%, the IC50 (Cucumis sativus [2]) is reported as 0.3 µM and the “growth inhibition (GI)” value (Digitaria sanguinalis [3]) is reported as 0%. The “growth inhibition (GI)” value (Abutilon theophrasti [4]) was 0%, the “growth inhibition (GI)” value (Setaria viridis [5]) was 0% and the “growth inhibition (GI)” value (Abutilon theophrasti [6]) was 100%. For the same compound, the “growth inhibition (GI)” value (Digitaria sanguinalis [7]) was 0%, the “growth inhibition (GI)” value (Digitaria sanguinalis [8]) was 10% and the “growth inhibition (GI)” value (Brassica juncea) was 97.5%. The “growth inhibition (GI)” value (Abutilon theophrasti [9]) was 47.5%, the “growth inhibition (GI)” value (Amaranthus spinosus [10]) was 52.5% and the “growth inhibition (GI)” value (Amaranthus spinosus [11]) was 0%. The “growth inhibition (GI)” value (Amaranthus spinosus [12]) was 0%, the “growth inhibition (GI)” value (Setaria viridis [13]) was 0% and the “growth inhibition (GI)” value (Abutilon theophrasti [14]) was 97.5%. The “growth inhibition (GI)” value (Echinochloa crus-galli [15]) was 5%, the “growth inhibition (GI)” value (Chenopodium album [16]) was 0% and the growth inhibition (GI) (Pisum sativum) was 82.5%. The “growth inhibition (GI)” value (Abutilon theophrasti [17]) was 97.5%, the “growth inhibition (GI)” value (Digitaria sanguinalis [18]) was 0% and the “growth inhibition (GI)” value (Amaranthus retroflexus [19]) was 100%. For the same compound, the “growth inhibition (GI)” value (Setaria viridis [20]) was 5.5%, the “growth inhibition (GI)” value (Abutilon theophrasti [21]) was 0% and the “growth inhibition (GI)” value (Amaranthus spinosus [22]) was 50%. For the same compound, the “growth inhibition (GI)” value (Chenopodium album [23]) was 52.5%, the “growth inhibition (GI)” value (Amaranthus spinosus [24]) was 100% and the “growth inhibition (GI)” value (Amaranthus spinosus [25]) was 82.5%. For the same compound, the “growth inhibition (GI)” value (Setaria viridis [26]) was 0%, the “growth inhibition (GI)” value (Chenopodium album [27]) was 92.5% and the “growth inhibition (GI)” value (Digitaria sanguinalis [28]) was 0%. For the same compound, the inhibition at 480 h [29] was 37.5%, the “growth inhibition (GI)” value (Chenopodium album [30]) was 62.5% and the “growth inhibition (GI)” value (Digitaria sanguinalis [31]) was 0%. The “growth inhibition (GI)” value (Setaria viridis [32]) was 0%, the “growth inhibition (GI)” value (Chenopodium album [33]) was 97.5% and the “growth inhibition (GI)” value (Setaria viridis [34]) was 0%. For the same compound, the IC50 [35] was 23.1 µM.

For COP(=O)(OC)C(OC(=O)COc1ccc(Cl)cc1Cl)c1ccccc1 (stereo not given), the “growth inhibition (GI)” value (Chenopodium album [1]) was 0%, the “growth inhibition (GI)” value (Echinochloa crus-galli [36]) was “<=50%” and the IC50 (Cucumis sativus [2]) was 0.0142 µM. The “growth inhibition (GI)” value (Digitaria sanguinalis [3]) was 0%, the “growth inhibition (GI)” value (Abutilon theophrasti [4]) was 0% and the “growth inhibition (GI)” value (Setaria viridis [5]) was 0%. For the same compound, the “growth inhibition (GI)” value (Abutilon theophrasti [6]) was 100%, the “growth inhibition (GI)” value (Medicago sativa [37]) was 90% and the “growth inhibition (GI)” value (Echinochloa crus-galli [38]) was 50%. For the same compound, the “growth inhibition (GI)” value (Digitaria sanguinalis [7]) was 0%, the “growth inhibition (GI)” value (Digitaria sanguinalis [8]) was 45% and the “growth inhibition (GI)” value (Brassica juncea) was 97.5%. For the same compound, the “growth inhibition (GI)” value (Abutilon theophrasti [9]) was 0%, the “growth inhibition (GI)” value (Amaranthus spinosus [10]) was 62.5% and the “growth inhibition (GI)” value (Amaranthus retroflexus [39]) was 90%. For the same compound, the “growth inhibition (GI)” value (Amaranthus spinosus [11]) was 0%, the “growth inhibition (GI)” value (Amaranthus spinosus [12]) was 0% and the “growth inhibition (GI)” value (Setaria viridis [13]) was 0%. For the same compound, the “growth inhibition (GI)” value (Abutilon theophrasti [14]) was 92.5%, the “growth inhibition (GI)” value (Echinochloa crus-galli [15]) was 25% and the “growth inhibition (GI)” value (Chenopodium album [16]) was 0%. The growth inhibition (GI) (Pisum sativum) was 96.5%, the “growth inhibition (GI)” value (Abutilon theophrasti [17]) was 82.5% and the “growth inhibition (GI)” value (Medicago sativa [40]) was 90%. For the same compound, the “growth inhibition (GI)” value (Digitaria sanguinalis [41]) was “<=50%”, the “growth inhibition (GI)” value (Digitaria sanguinalis [42]) was 50% and the “growth inhibition (GI)” value [43] was 90%. For the same compound, the “growth inhibition (GI)” value (Digitaria sanguinalis [18]) was 0%, the “growth inhibition (GI)” value (Amaranthus retroflexus [19]) was 87.5% and the “growth inhibition (GI)” value (Amaranthus retroflexus [44]) was 90%. The “growth inhibition (GI)” value (Setaria viridis [20]) was 30%, the “growth inhibition (GI)” value (Abutilon theophrasti [21]) was 0% and the “growth inhibition (GI)” value (Amaranthus spinosus [22]) was 0%. The “growth inhibition (GI)” value [45] was 90%, the “growth inhibition (GI)” value (Chenopodium album [23]) was 0% and the “growth inhibition (GI)” value (Amaranthus spinosus [24]) was 87.5%. The “growth inhibition (GI)” value (Amaranthus spinosus [25]) was 70%, the “growth inhibition (GI)” value (Setaria viridis [26]) was 0% and the “growth inhibition (GI)” value (Chenopodium album [27]) was 92.5%. The “growth inhibition (GI)” value (Digitaria sanguinalis [28]) was 0%, the IC50 (Cucumis sativus [46]) was 8.95 µM and the inhibition at 480 h [29] was 10%. The “growth inhibition (GI)” value (Chenopodium album [30]) was 82.5%, the “growth inhibition (GI)” value (Digitaria sanguinalis [31]) was 0% and the “growth inhibition (GI)” value (Setaria viridis [32]) was 0%. The “growth inhibition (GI)” value (Chenopodium album [33]) was 97.5%, the “growth inhibition (GI)” value (Setaria viridis [34]) was 0% and the IC50 [35] was 95.4 µM.
